This note sets out measurements from US3978130A, “1-Cyclopropyl-1-phenyl-ω-amino-1-alkanols” (A. H. Robins Company, Incorporated, priority 1974, dated 1976).

For the assay, the system named is depressant effects induced in mice by tetrabenazine. As to the kind of experiment: Blocking of the depressant effects induced in mice by intravenous tetrabenazine (modified Englehardt procedure). The format is in vivo. To be noted: Mus musculus, IP. How it is done:
The activity of the compounds was determined by their effectiveness in blocking the depressant effects which are induced in mice by the intravenous administration of 2-oxo-3-isobutyl-9,10-dimethoxy-1,2,3,4,6,7-hexahydro-11bh-benzo[a] quinolizine (tetrabenazine). The procedure used was a modification of Englehardt, E. L. et al, J. Med. Chem. 11 (2), 325(1968). The ED50 values of the compounds are given in Table I; the compounds of Examples 3, 5, 7 and 8 are the preferred compounds.

Structures can show the parent of a compound that is named as a salt.

What is called ED50 is the dose at which the effect has come halfway, by size or by number of responders. A higher ED50 goes with a need for a large dose. For `CN(C)CCC(O)(c1cccc(C(F)(F)F)c1)C1CC1` (centres unmarked) [Example 5, 1-Cyclopropyl-3-dimethylamino-1-(3-trifluoromethylphenyl)-1-propanol Hydrochloride], the 50% effect level (ED50) was put at a dose of 2.5 mg/kg.

In turn, `COc1ccc(C(O)(CCN(C)C)C2CC2)cc1` (centres unmarked) [Example 4, 1-Cyclopropyl-3-dimethylamino-1-(4-methoxyphenyl)-1-propanol Hydrobromide] showed a median effective dose (ED50) of 7.8 mg/kg. Next, `CN(C)CCCC(O)(c1ccccc1)C1CC1` (centres unmarked) [Example 2, 1-Cyclopropyl-4-dimethylamino-1-phenyl-1-butanol Hydrochloride]: 12.5 mg/kg; `CCN(CC)CCC(O)(c1cccc(C(F)(F)F)c1)C1CC1` (centres unmarked) [Example 7, 1-Cyclopropyl-3-diethylamino-1-(3-trifluoromethylphenyl)-1-propanol Hydrochloride]: 4.2 mg/kg.

Compound `CNCCC(O)(c1cccc(C(F)(F)F)c1)C1CC1` (centres unmarked) [Example 8, 1-Cyclopropyl-3-methylamino-1-(3-trifluoromethylphenyl)-1-propanol] yielded an ED50 of 4.6 mg/kg.

For `CN(C)CCC(O)(c1ccccc1)C1CC1` (centres unmarked) [Example 1, 1-Cyclopropyl-3-dimethylamino-1-phenyl-1-propanol Hydrochloride], the 50% effect level (ED50) was put at a dose of 10 mg/kg. For `CN(C)CCC(O)(c1ccc(C(F)(F)F)cc1)C1CC1` (centres unmarked) [Example 6, 1-Cyclopropyl-3-dimethylamino-1-(4-trifluoromethylphenyl)-1-propanol Hydrochloride] the value was 12 mg/kg; for `CN(C)CCC(O)(c1cccc(Cl)c1)C1CC1` (centres unmarked) [Example 3, 1-Cyclopropyl-3-dimethylamino-1-(3-chlorophenyl)-1-propanol Hydrochloride], 6.4 mg/kg.
